According to a melting point compilation (Tetko et al.; mined from patent text by program, amines drawn as free bases though some values may be those of a salt):

| SMILES | melting point |
| --- | --- |
| COc1ccc2c(c1)C(=O)N(CCCN(C)CCN1C(=O)c3cc(OC)ccc3C(C)(C)C1=O)C(=O)C2(C)C | 142 to 143 °C |
| COCCCS(=O)(=O)NC(=O)CCc1cc(OCC2CC2)nn1Cc1ccc(C(F)(F)F)cc1Cl | 152 to 154 °C |
| CC(C)=CCCC(C)C1CCC2C3CCC4CC(O)CCC4(C)C3CCC12C (stereo unspecified) | 117 to 118 °C |
| O=C(Nc1ccc(CBr)c(C(F)(F)F)c1)C(F)(F)F | 119 to 120 °C |
| CC(C)(C)Nc1nc(Cl)nc(Cl)n1 | 129 to 130 °C |
| CC1CCc2c(N3CCCCC3)c(Cl)cc3c(=O)c(C(=O)O)cn1c23 (stereo unspecified) | 246 to 248 °C |
| Clc1ccc2c(c1)C(c1ccccc1Cl)=NCc1c[nH]cc1-2 | 204 to 206 °C |
| CC(C)(C)OC(=O)N1CCC(c2c[nH]cn2)CC1 | 198 °C |
| CCCCOc1c(N(C)C(=O)OC(C)(C)C)n(CC2CC2)c(=O)c2ccc(OCC(N)=O)cc12 | 209 to 210 °C |
| CN1CCN(C(=O)c2cc(S(=O)(=O)NC3CCCCC3)ccc2N)CC1 | 167 to 168 °C |
| O[C@H]1CC[C@@H](Nc2ncc3ncnc(Nc4ccc(F)c(Cl)c4)c3n2)CC1 | 270 to 275 °C |
| CCOC(=O)c1ccc([N+](=O)[O-])c(O)c1 | 80 to 81 °C |
| CCCN(CCC)c1c(CC)nn2c(-c3c(C)cc(C)cc3OC)cccc12 | 72.3 to 74.6 °C |
| CC(C)N1CC2(COc3ccc([N+](=O)[O-])cc3OC2)OC1=O (stereo unspecified) | 140 to 144 °C |
| CCCCCCC(C)(C)c1cc(OC)c(C2=C[C@@H]3CC[C@@]2(CO)C3(C)C)c(OC)c1 | 49 to 51 °C |
| CCCCNC(=O)NS(=O)(=O)c1cccc2c1S(=O)(=O)N(C)C2 | 162 to 164 °C |
| O=[N+]([O-])c1ccc(CN(CCO)CCO)cc1 | 74 to 75 °C |
| COc1cc2c(cc1Br)CC(=O)NN=C2c1ccc([N+](=O)[O-])cc1 | 245 to 256 °C |
| OCCCOc1nc(N2CCCCC2)c2nc(OCCCO)nc(N3CCCCC3)c2n1 | 154 to 156 °C |
| COC(=O)c1cc(OC)c(C(=O)OC)cc1OC | 141 to 143 °C |
| CN(C)C(=O)n1nc(C(C)(C)C)cc1S(C)=O (stereo unspecified) | 95 to 96 °C |
| CCCC(C)c1nn(-c2ccc(C(F)(F)F)cn2)cc1CCCOc1c(CC(=O)O)cccc1OC (stereo unspecified) | 107 to 108 °C |
| O=C(O)c1cc(C(F)(F)F)nn1-c1ncccc1Cl | 175 to 176 °C |

| SMILES | melting point |
| --- | --- |
| C#CC1(O)CCC2C3CCC4=CC(=O)CCC4C3C(C(F)F)CC21C (stereo unspecified) | 185 to 187 °C |
| COc1cc2ncnc(N3CCN(c4ccc5c(c4)CCC(=O)N5)CC3)c2cc1OC | 261 to 262 °C |
| COc1nc(N)nc(C(C)C)n1 | 116 to 118 °C |
| O=C(N[C@H]1CC[C@H](CCN2CCC(c3cccc4c3CCO4)CC2)CC1)c1ccc2c(c1)OCO2 | 233 °C |
| CCCCC[N+]([O-])=[N+]([O-])CC | 184 to 185 °C |
| Nc1c(Cl)c(C(=O)O)nc(Cl)c1C(F)(F)F | 173 °C |
| CCc1ccc2cc(OC)cc(NC(C)CCCN)c2n1 (stereo unspecified) | 111 to 114 °C |
| Cc1c(C(F)(F)F)[nH]c(=O)n(-c2ccc(Br)cc2F)c1=O | 188 to 189 °C |
| CC1(C)c2ccccc2C(C)(C)C1(S)CC(=O)O | 159 to 161 °C |
| CCN(CC)c1nc(CO)cs1 | 67 to 69 °C |
| O=C1NC(=O)C(c2ccc(Oc3ccc(Cl)cc3)cc2)(N2CCN(CC(O)CO)CC2)C(=O)N1 (stereo unspecified) | 257 to 258 °C |
| COc1cc(Cc2cnc(N)nc2N)cc(OC)c1N(C)N=O | 249 to 250 °C |
| CCOC(=O)c1[nH]c(CC)c(CC)c1CC | 47 to 49 °C |
| CCCCN(CCCC)C(=O)c1cc(C(C)(C)C)c(O)c(C(C)(C)C)c1 | 94 to 95 °C |
| CC(C)C1Cc2cc(OCC(=O)O)cc(Cl)c2C1=O (stereo unspecified) | 126 to 128 °C |
| Cn1c(CO)nc([N+](=O)[O-])c1C#N | 122 to 124 °C |
| N#Cc1ccc2c(c1)nc(N)n2CCC(=O)O | > 320 °C |
| CC(=O)Oc1cc(S(=O)(=O)Oc2ccc(C(=O)c3c(Cc4ccc(Br)cc4)sc(C)c3C)cc2C2CCCC2)ccc1C(=O)O | 113 to 114 °C |
| CC1C[C@H]2[C@@H]3CCC4=CC(=O)CC[C@]4(CS)[C@H]3CC[C@]2(C)C1=O (stereo partly specified) | 130 to 132 °C |
| CCOC(=O)c1cc(-n2c(OC)nc(C(F)(F)F)c(F)c2=O)c(F)cc1Cl | 69 to 72 °C |
| C=CCOc1cc(C)c(OC(C)=O)c(C)c1C | 40 to 41 °C |
| Cc1cc(C)c(S(=O)(=O)NCCS)c(C)c1 | 73 °C |
| CC(C)N1CC(CO)CC2c3cccc4[nH]cc(c34)CC21 (stereo unspecified) | 192 to 194 °C |

Now from value to compound:

| melting point | SMILES |
| --- | --- |
| > 300 °C | O=C1c2ccccc2C(=O)c2sc(-c3ccc([N+](=O)[O-])o3)nc21 |
| 175 to 176 °C | CCOCc1nc2c(N)nc3ccccc3c2n1CCCC1(O)CCCCC1 |
| 100 to 102 °C | O=C(NCC1Cc2cccc(-c3ccc(C(F)(F)F)cc3)c2O1)OCc1ccccc1 (stereo unspecified) |
| 86 to 88 °C | Cc1ccc(CN2CC=C(/C=C/c3cccc(Cl)c3)CC2)cc1 |
| 136 to 140 °C | O=C1OCCC1Oc1ccc(Cl)cc1[N+](=O)[O-] (stereo unspecified) |
| 200 to 202 °C | COC(=O)c1ccc(O)c(C(=O)CC(=O)c2cccnc2)c1 |
| 256 to 258 °C | CCOC(=O)c1cccc(Nc2ncnc3[nH]cc(C(=O)c4ccccc4)c23)c1 |
| 248 °C | COc1cc(CN2C(=O)CN(C)C2=O)cc(OC)c1-c1ccc(C[C@H](NC(=O)c2c(Cl)cccc2Cl)C(=O)O)cc1 |
| 153 to 155 °C | N#Cc1cccc2c1nc(-c1c(F)cccc1F)n2Cc1c(F)cccc1F |
| 92 to 98 °C | Cc1onc(-c2ccccc2)c1C(=O)NCCCN1CCN(c2cc(Cl)ccc2O)CC1 |
| 105 to 117 °C | OC1N=C(c2ccccc2Cl)c2cc(Cl)ccc2-c2ncncc21 (stereo unspecified) |
| 186 to 188 °C | COC(=O)[C@H](Cc1c[nH]cn1)NC(=O)[C@H](CCC(N)=O)NC(=O)OCc1ccccc1 |
| 194 °C | NS(=O)(=O)c1ccc(-n2ncc(F)c2-c2ccccc2)cc1 |
| 198 to 199 °C | COc1ccc(C(=NO)c2cccc(F)c2F)c(O)c1Cl |
| 78 to 80 °C | CON(C)C(=O)[C@H]1CCn2c(cc3ccccc32)C1 |
| 122 °C | O=C(Nc1cccnc1Cl)c1ccccc1F |
| 208 °C | O=S(=O)(Nc1ccc(Oc2ccc3cccnc3c2)cc1)c1ccc(Cl)cc1 |
| 93 °C | CC(C)(C)c1cc(CC=Cc2ccccc2)cc(C(C)(C)C)c1O |
| 92 to 94 °C | c1ccc(C2=N[C@@H](c3ccccc3)[C@H](N3CCOCC3)S2)cc1 (relative stereo) |
| 178 to 179 °C | CSc1nnc2c(=O)c3ccc(C)cc3ccn12 |
| 169 to 170 °C | Clc1cnc2c(NCc3ccccc3)nc(Cl)nc2c1 |
| 130 °C | CCCC(=O)NN=Cc1ccnc2ccccc12 |
| 131 to 134 °C | O=C(Nc1nc(-c2ccco2)c(C(=O)C2CCOCC2)s1)c1ccccc1OC(F)(F)F |
| 172 to 177 °C | O=C(O)c1cc(C(c2ccccc2)c2ccccc2)ccn1 |
| 220 °C | C#CCOc1ccc(OC)cc1-c1nc2ncccc2[nH]1 |
| 131 to 134 °C | CC(C)(C=C(Cl)Cl)C(=O)Nc1ccc(Cl)cc1 |
| 106 to 108 °C | O=C1CCC(c2ccccc2)N1c1ccccc1 (stereo unspecified) |
| 118 to 119 °C | CCOC(=O)Cc1c(C)n(Cc2ccc3ccccc3c2)c2ccc(OCc3csc(-c4ccccc4)n3)cc12 |

| melting point | SMILES |
| --- | --- |
| 216 to 220 °C | COc1cccc2c(Nc3ccc(C(=O)NC4CCN(Cc5ccccc5)CC4)cc3)c(C(=O)NC3CCN(CCc4ccccc4)CC3)cnc12 |
| 123 to 124 °C | CCCCCC(COc1ccc(C(=O)O)cc1)c1ccc2c(c1)SCCC2(C)C (stereo unspecified) |
| 115 to 117 °C | Cc1ccc(-c2nc3ccccc3o2)c(F)c1 |
| 90 to 91 °C | CCCCC1(CC)COP(=O)(Cc2ccc(N)cc2)OC1 (stereo unspecified) |
| 176 to 177 °C | COC(=O)c1ccccc1S(=O)(=O)NC(=O)c1cc(C)n(C)n1 |
| 82 °C | CCCN(CCC)C1CCc2cccc(-c3ccc4ccccc4n3)c2C1 (stereo unspecified) |
| 178 to 180 °C | COCCCn1c(CO)c(Br)c2c3c(c(-c4ccccc4Cl)cc21)C(=O)NC3=O |
| 101 to 103 °C | CC1(C)CC(=O)C(C(=O)NS(=O)(=O)c2ccccc2)C(=O)C1 |
| 196 to 199 °C | O=C(Oc1ccccc1)c1ncn2c1CN(C(=O)N1CCCC1)c1ccccc1-2 |
| 105 to 108 °C | CC(C)(C)C(=O)COc1ccc(S(=O)(=O)c2ccccc2)cc1 |
| 248 °C | Cc1cccc(-c2n[nH]cc2-c2ccc(F)c(-c3cn(CCO)cn3)c2)n1 |
| 164 to 166 °C | COc1ccc(C2CCN(C(=O)Nc3ccc4cc(CN5C(C)(C)CCCC5(C)C)ccc4c3)CC2)cc1 |
| 148 to 149 °C | Cc1ccc(Cl)cc1N1CN(Cc2ccccc2)CN(C)C1=S |
| 170 °C | COc1ccc(-n2cnnc2C(C)O)cc1 (stereo unspecified) |
| 284 to 285 °C | CN1N=C(c2ccc(F)cc2)c2ccc(C#N)cc2CS1(=O)=O |
| 50 °C | NCCC(=O)N(c1ccccc1)c1ccccc1 |
| 87 to 89 °C | CCn1cc(-c2ccccc2)c(=O)c(-c2cccc(C)c2)c1 |
| 107 °C | CC(C)(C)OC(=O)NC1(c2ccccc2)CCN(CCC2(c3ccc(F)c(F)c3)CN(C(=O)c3ccccc3)CCO2)CC1 (stereo unspecified) |
| 64 to 67 °C | CCC(Cc1ccc(C(=O)OC)cc1)NCC(O)c1ccc(O)c(CO)c1 (stereo unspecified) |
| 72 to 78 °C | S=C(NCCc1c[nH]cn1)NCCN(Cc1ccc(Cl)c(Cl)c1)c1ccc(Br)cn1 |
| 83.5 to 85 °C | O=C(c1ccc(CCCCc2ccccc2)cc1)N(O)Cc1ccccc1 |
| 106 °C | Fc1cc(F)c(-c2c(Cl)nc3nc(SCc4ccccc4)nn3c2Cl)c(F)c1 |
| 112 to 113 °C | O=C(CCc1cnoc1-c1ccccc1)Nc1ccc2ccccc2n1 |
| 127 to 129 °C | O=C(O)c1cc(Cl)cc(OCc2ccccc2)c1 |
| 200 to 202 °C | COc1ccc2c(=O)nc(-c3ccccn3)sc2c1 |
| 224 to 225 °C | NS(=O)(=O)c1cc(C(=O)O)cc(NCc2ccccc2)c1Sc1ccccc1 |
| 134 to 137 °C | CON=C(C(=O)OC)c1ccccc1COc1ccc2c(c1)OCC2=O |
